Assay results from US6737383B1, “Herbicidal oxadiazolidines” (priority 1999, dated 2004).

How the values were obtained:
maize hybrid P33G26 = assay: Test G maize injury with safener-treated seed; details: absence of any safener; rates ranging from 140 to 1120 g/ha
Description: In soil-containing pots were planted seeds of maize hybrid P33G26 that was previously treated with dichlomid, fenchlorazole-ethyl, and naphthalic anhydride (or no safener). The soil surface was then treated with several rates of Compound 131 or Compound 146 dissolved in a non-phytotoxic solvent using a flat-fan sprayer calibrated to deliver 310 L/ha. Treatmemtes were replicated 4 or 5 times. The treated and untreated plants were allowed to grow in a greenhouse using supplementary artificial lighting with a day-length of 14 hours, with the temperature maintained at about 27° C. during the day and 24° C. during the night. Plants were kept watered with a dilute balanced fertilizer solution.
At 28 days after application, the treated plants were compared with untreated controls and vissually evaluated.

cocklebur = assay: Test C postemergence cocklebur; format: in vivo, Xanthium strumarium; details: 0 to 100 scale, 0 no effect, 100 complete control
In short: (§1)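 Postemergence spray; formulation = non-phytotoxic solvent + surfactant; soil 60:40 sandy loam:greenhouse potting mix; greenhouse, ~14–21 d; visual rating vs untreated, 0–100 (100 = complete control).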

corn = assay: Test C postemergence corn; format: in vivo, Zea mays; details: 0 to 100 scale, 0 no effect, 100 complete control
In short: as §1

fall panicum = assay: Test C postemergence fall panicum; format: in vivo, Panicum dichotomiflorum; details: 0 to 100 scale, 0 no effect, 100 complete control
In short: as §1

ivyleaf morningglory = assay: Test C postemergence ivyleaf morningglory; format: in vivo, Ipomoea hederacea; details: 0 to 100 scale, 0 no effect, 100 complete control
Description: (§2) Compounds evaluated in this test were formulated in a non-phytotoxic solvent mixture which included a surfactant and applied to plants that were grown for various periods of time before treatment (postemergence application). A mixture of sandy loam soil and greenhouse potting mix in a 60:40 ratio was used for the postemergence test.
(§3) Plantings of these crops and weed species were adjusted to produce plants of appropriate size for the postemergence test. All plant species were grown using normal greenhouse practices. Crop and weed species include arrowleaf sida (Sida rhombifolia), barnyardgrass (Echinochloa crus-galli), cocklebur (Xanthium strumarium), common ragweed (Ambrosia elatior), corn (Zea mays), cotton (Gossypium hirsutum), eastern black nightshade (Solanum ptycanthum), fall panicum (Panicum dichotomiflorum), field bindweed (Convolvulus arvensis), giant foxtail (Setaria faberii), hairy beggarticks (Bidens pilosa), ivyleaf morningglory (Ipomoea hederacea), johnsongrass (Sorghum halepense), ladysthumb smartweed (Polygonum persicaria), lambsquarters (Chenopodium album), large crabgrass (Digitaria sanguinalis), purple nutsedge (Cyperus rotundus), redroot pigweed (Amaranthus retroflexus), soybean (Glycine max), surinam grass (Brachiaria decumbens), velvetleaf (Abutilon theophrasti) and wild poinsettia (Euphorbia heterophylla).
(§4) Treated plants and untreated controls were maintained in a greenhouse for approximately 14, to 21 days, after which all treated plants were compared to untreated controls and visually evaluated. Plant response ratings, summarized in Table C, were based upon a 0 to 100 scale where 0 was no effect and 100 was complete control. A dash response (−) means no test result.

ladysthumb smartweed = assay: Test C postemergence ladysthumb smartweed; format: in vivo, Polygonum persicaria; details: 0 to 100 scale, 0 no effect, 100 complete control
Description: as §2, §3, §4

purple nutsedge = assay: Test C postemergence purple nutsedge; format: in vivo, Cyperus rotundus; details: 0 to 100 scale, 0 no effect, 100 complete control
Description: as §2, §3, §4

redroot pigweed = assay: Test C postemergence redroot pigweed; format: in vivo, Amaranthus retroflexus; details: 0 to 100 scale, 0 no effect, 100 complete control
In short: as §1

velvetleaf = assay: Test C postemergence velvetleaf; format: in vivo, Abutilon theophrasti; details: 0 to 100 scale, 0 no effect, 100 complete control
Description: as §2, §3, §4

wild poinsettia = assay: Test C postemergence wild poinsettia; format: in vivo, Euphorbia heterophylla; details: 0 to 100 scale, 0 no effect, 100 complete control
In short: as §1

[1] = tested on: Abutilon theophrasti (ABUTH); assay: Test F preemergence, alone and in mixture with rimsulfuron, ABUTH; format: in vivo; details: 21 days after treatment, 0-100 scale
Description: (§5) Abutilon theophrasti (ABUTH), Chenopodium album (CHEAL), Amaranthus rudis (AMATA), Setaria faberii (SETFA), Panicum dichotomiflorum (PANDI), and Digitaria sanguinalis (DIGSA) were grown from seed in pots of an artificial potting mixture in a greenhouse. Compounds of the present invention were applied at 70 and 105 g ai/ha preemergence. Rimsulfuron was applied at 8.8 and 17.5 g ai/ha. Mixtures of the compounds of the present invention and rimsulfuron were also applied.
(§6) Following application, the plants were maintained by watering as needed. A fertilizer solution of Peter's 20-20-20 (10 pounds/5 gallons of water) plus Sprint 330, a Iron Chelate micronutrient, (113.5 grams/5 gallons of water) was injected into the water with an Anderson fertilizer injection system to provide approximately 219 ppm of nitrogen with each watering. Artificial lighting was used to supplement natural light to produce a 14 hour photoperiod and: an additional one hour light period was used between 1:00 am to 2:00 am for a night interruption. Greenhouse temperatures were targeted for 27° C. in the day and 21° C. at night. At 21 days after treatment, all plants were evaluated for injury as compared to control plants that were sprayed only with non-phytotoxic solvent.
(§7) Colby's equation was used to calculate the expected additive herbicidal effect of the mixtures of Compound 21 and the mixture partners listed above. […]

[2] = tested on: Chenopodium album (CHEAL); assay: Test F preemergence, alone and in mixture with rimsulfuron, CHEAL; format: in vivo; details: 21 days after treatment, 0-100 scale
Description: as §5, §6, §7

[3] = tested on: Panicum dichotomiflorum (PANDI); assay: Test F preemergence, alone and in mixture with rimsulfuron, PANDI; format: in vivo; details: 21 days after treatment, 0-100 scale
Description: as §5, §6, §7

[4] = Alone: Cmpd. rate 70, Rimsulfuron 0
[5] = Alone: Cmpd. rate 105, Rimsulfuron 0

CC(C)N(C(=O)n1oc(=O)n(-c2ccccc2OC(F)(F)F)c1=O)c1ccc(F)cc1 [Compound 14]
Injury to maize (maize hybrid P33G26): severely injurious to maize

CC(C)N(C(=O)n1oc(=O)n(C(C)C)c1=O)c1ccccc1 [Compound 113]
Plant response rating, Cocklebur (cocklebur; Rate 140 g/ha): 5
Plant response rating, Cocklebur (cocklebur; Rate 280 g/ha): 50
Plant response rating, Cocklebur (cocklebur; Rate 560 g/ha): 50
Plant response rating, Cocklebur (cocklebur; Rate 1120 g/ha): 50
Plant response rating, Corn (corn; Rate 140 g/ha): 0
Plant response rating, Corn (corn; Rate 280 g/ha): 40
Plant response rating, Corn (corn; Rate 560 g/ha): 45
Plant response rating, Corn (corn; Rate 1120 g/ha): 60
Plant response rating Fall panicum (fall panicum; Rate 140 g/ha): 60
Plant response rating Fall panicum (fall panicum; Rate 280 g/ha): 80
Plant response rating Fall panicum (fall panicum; Rate 560 g/ha): 85
Plant response rating Fall panicum (fall panicum; Rate 1120 g/ha): 85
Plant response rating I. morningglory (ivyleaf morningglory; Rate 140 g/ha): 10
Plant response rating I. morningglory (ivyleaf morningglory; Rate 280 g/ha): 50
Plant response rating I. morningglory (ivyleaf morningglory; Rate 560 g/ha): 50
Plant response rating I. morningglory (ivyleaf morningglory; Rate 1120 g/ha): 50
Plant response rating Ladysthumb (ladysthumb smartweed; Rate 140 g/ha): 0
Plant response rating Ladysthumb (ladysthumb smartweed; Rate 280 g/ha): 0
Plant response rating Ladysthumb (ladysthumb smartweed; Rate 560 g/ha): 85
Plant response rating Ladysthumb (ladysthumb smartweed; Rate 1120 g/ha): 85
Plant response rating, Purple nutsedge (purple nutsedge; Rate 140 g/ha): 0
Plant response rating, Purple nutsedge (purple nutsedge; Rate 280 g/ha): 10
Plant response rating, Purple nutsedge (purple nutsedge; Rate 560 g/ha): 0
Plant response rating, Purple nutsedge (purple nutsedge; Rate 1120 g/ha): 10
Plant response rating, Redroot pigweed (redroot pigweed; Rate 140 g/ha): 0
Plant response rating, Redroot pigweed (redroot pigweed; Rate 280 g/ha): 0
Plant response rating, Redroot pigweed (redroot pigweed; Rate 560 g/ha): 0
Plant response rating, Redroot pigweed (redroot pigweed; Rate 1120 g/ha): 90
Plant response rating, Velvetleaf (velvetleaf; Rate 140 g/ha): 0
Plant response rating, Velvetleaf (velvetleaf; Rate 280 g/ha): 0
Plant response rating, Velvetleaf (velvetleaf; Rate 560 g/ha): 60
Plant response rating, Velvetleaf (velvetleaf; Rate 1120 g/ha): 75
Plant response rating Wild poinsettia (wild poinsettia; Rate 140 g/ha): 10
Plant response rating Wild poinsettia (wild poinsettia; Rate 280 g/ha): 50
Plant response rating Wild poinsettia (wild poinsettia; Rate 560 g/ha): 80
Plant response rating Wild poinsettia (wild poinsettia; Rate 1120 g/ha): 95
ABUTH Observed [1, 4]: 45%
ABUTH Observed [1, 5]: 65%
CHEAL Observed [2, 4]: 15%
CHEAL Observed [2, 5]: 35%
PANDI Observed [3, 4]: 100%
PANDI Observed [3, 5]: 95%
